Data reported in ChEMBL document CHEMBL4396950, “A rational search for discovering potential neutraligands of human complement fragment 5a (hC5a)” (Bioorg Med Chem, 2019).
pKd: −log10 of the molar value. Values belong to the compound of their own block, whether it stands above or below them. Active and inactive are the calls of the source. The calls are words filed in the database; no cut-off is given here.

Key:
[1] = biological target: T1, Complement C5 (Homo sapiens, UniProt P01031); experiment: Induction of recombinant human C5a destabilization assessed as intrinsically disordered structure at 2 to 4 M by circular dichroism analysis
[2] = biological target: T1, Complement C5; experiment: Induction of recombinant human C5a destabilization assessed as protein unfolding at 6 M after 1 hr by fluorescence analysis
[3] = biological target: T1, Complement C5; experiment: Induction of recombinant human C5a destabilization assessed as protein unfolding at 6 M incubated for overnight by fluorescence analysis
[4] = biological target: T1, Complement C5; experiment: Induction of recombinant human C5a destabilization assessed as protein unfolding at 6 M by circular dichroism analysis
[5] = biological target: T1, Complement C5; experiment: Binding affinity to human C5a assessed as Potassium iodide-induced quenching by measuring Stern-Volmer quenching constant at 1 uM by fluorescence analysis
[6] = biological target: T1, Complement C5; experiment: Induction of human recombinant C5a destabilization assessed as protein structure helicity up to 10 uM by circular dichroism analysis
[7] = biological target: T1, Complement C5; experiment: Binding affinity to recombinant human C5a assessed as conformational change =< 1 uM at 4 degC incubated for 1 hr by circular dichroism analysis
[8] = biological target: T1, Complement C5; experiment: Induction of human recombinant C5a unfolding by circular dichroism analysis
[9] = biological target: T1, Complement C5; experiment: Binding affinity to recombinant human C5a assessed as conformational change at 1 to 100 uM incubated for 1 hr at 4degC by circular dichroism analysis
[10] = biological target: T1, Complement C5; experiment: Binding affinity to human C5a assessed as induction of conformational change with no shift in absorption maxima at 1 uM by fluorescence analysis
[11] = biological target: T1, Complement C5; experiment: Binding affinity to human C5a assessed as loss of secondary structure by measuring red shift in absorption maxima at 10 to 100 uM by fluorescence analysis
[12] = biological target: T1, Complement C5; experiment: Binding affinity to human C5a assessed as dissociation constant after 1 hr by circular dichroism analysis
[13] = biological target: T1, Complement C5; experiment: Binding affinity to recombinant human C5a assessed as loss of super secondary structure at > 10 uM incubated for 1 hr at 4 degC by circular dichroism analysis
[14] = biological target: T1, Complement C5; experiment: Induction of recombinant human C5a destabilization assessed as intrinsically disordered structure at 2 to 8 M by circular dichroism analysis
[15] = biological target: T1, Complement C5; experiment: Induction of recombinant human C5a destabilization assessed as intrinsically disordered structure at 8 M incubated for overnight by fluorescence analysis
[16] = biological target: T1, Complement C5; experiment: Induction of recombinant human C5a destabilization assessed as intrinsically disordered structure at 8 M incubated for 1 hr by fluorescence analysis

SMILES: N=C(N)N
- Activity [1]: Active
- Activity [2]: Active
- Activity [3]: Active
- Activity [4]: Active

SMILES: CC1=C(CC(=O)O)c2cc(F)ccc2/C1=C\c1ccc([S+](C)[O-])cc1 (stereo not drawn)
- Activity [6]: 5%
- Activity [7]: Active
- Activity [8]: Active
- Activity [9]: Active
- Activity [10]: Active
- KSV [5]: 2.5 M⁻¹
- Activity [11]: Active
- pKd [12]: 6.24
- Activity [13]: Active

SMILES: O=C(c1ccc(OCCN2CCCCC2)cc1)c1c(-c2ccc(O)cc2)sc2cc(O)ccc12 [RALOXIFENE]
- KSV [5]: 1.1 M⁻¹
- pKd [12]: 6.15

SMILES: NC(N)=O
- Activity [14]: Active
- Activity [15]: Active
- Activity [16]: Active

Results, then the compound that gave them:

- KSV [5]: 12.4 M⁻¹
SMILES: CC(=O)N[C@@H](Cc1c[nH]c2ccccc12)C(N)=O

- KSV [5]: 4.3 M⁻¹
- pKd [12]: 6.19
SMILES: O=C(O)CCc1nc(-c2ccccc2)c(-c2ccccc2)o1 [OXAPROZIN]

- KSV [5]: 2.6 M⁻¹
- pKd [12]: 6.24
SMILES: CC(C(=O)O)c1ccc2c(c1)[nH]c1ccc(Cl)cc12 (stereo not drawn) [CARPROFEN]
